Measurements taken from patent US20020137929A1, “1 - (3-heterocyclylphenyl) isothiourea, -isourea, -guanidine and -amidine herbicidal agents” (Intellectual Property Department, BASF Aktiengesellschaft, priority 1998, published 2002).

What was measured:
[1] = system: CHEAL (Lambsquarters, Common); test: Postemergence herbicidal evaluation; format: in vivo, Chenopodium album
Method: (§1) In the tests, seedling plants are grown in jiffy flats for about two weeks. The test compounds are dispersed in 50/50 acetone/water mixtures containing 0.5% TWEEN®20, a polyoxyethylene sorbitan monolaurate surfactant of Atlas Chemical Industries, in sufficient quantities to provide the equivalent of about 0.0156 kg to 0.500 kg per hectare of active compound when applied to the plants through a spray nozzle operating at 40 psi for a predetermined time. After spraying, the plants are placed on greenhouse benches and are cared for in accordance with conventional greenhouse procedures. From four to five weeks after treatment, the seedling plants are examined and rated according to the rating system set forth below. Where more than one test is involved for a given compound, the data are averaged.
(§2) Plant species employed in these evaluations are reported by header abbreviation, common name and scientific name.
(§3) Results of herbicide evaluation are expressed on a rating scale (0-9). The scale is based upon a visual observation of plant stand, vigor, malformation, size, chlorosis and overall plant appearance as compared with a control.

[2] = system: CYPSE (Flatsedge); test: Preemergence weed control under flooded paddy conditions; format: in vivo, Cyperus serotinus; settings: rated 3-4 weeks after treatment
In short: (§4)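 Values are visual 0-9 scores against a control for a preemergence application into paddy flood water at about 0.0313 to 0.500 kg/ha. Greenhouse duration was three to four weeks.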

[3] = system: GALAP (Galium); test: Postemergence herbicidal evaluation; format: in vivo, Galium aparine
In short: (§5)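 ~2-wk seedlings; postemergence spray, 40 psi; vehicle 1:1 acetone:water + 0.5% Tween 20; rate ≈0.0156–0.500 kg/ha; greenhouse hold; scored 4–5 wk after treatment, 0–9 scale vs control; repeat tests averaged.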

[4] = system: CYPIR (Rice Flatsedge); test: Postemergence weed control under flooded paddy conditions; format: in vivo, Cyperus iria; settings: postemergence weeds, 3-4 weeks after treatment
Excerpt: as §3
(§6) Plastic containers containing weeds which are 3 to 5 cm tall and rice seedlings at the 1.5 to 2.5 leaf stage are flooded with water. The water is maintained at 1.5 to 3 cm above the soil surface for the duration of the experiment. Test compounds are applied as aqueous/ acetone mixtures 50/50 v/v directly into the flood water to provide the equivalent of about 0.0313 to 0.500 kg/ha of active ingredient. The treated containers are placed on greenhouse benches and cared for in accordance with conventional greenhouse procedures. Three to four weeks after treatment, the test is terminated and each container is examined and herbicidal effect rated according to the rating system provided in Example 37. The compounds evaluated are reported by compound number given in Example 37.

[5] = system: ZEAMX (Corn, Field); test: Postemergence herbicidal evaluation; format: in vivo, Zea mays
In short: as §5

[6] = system: IPOHE (Morningglory, Ivyleaf); test: Postemergence herbicidal evaluation; format: in vivo, Ipomoea hederacea
In short: as §5

[7] = system: TRZAWR (Wheat, Winter, cv Riband); test: Postemergence herbicidal evaluation; format: in vivo, Triticum aestivum
Method: as §1, §2, §3

[8] = system: MOOVA (Monochoria); test: Postemergence weed control under flooded paddy conditions; format: in vivo, Monochoria vaginalis; settings: postemergence weeds, 3-4 weeks after treatment
Excerpt: as §3, §6

[9] = system: ECHCG (Barnyardgrass); test: Postemergence herbicidal evaluation; format: in vivo, Echinochloa crus-galli
In short: as §5

[10] = system: ORYSAT (Rice, Tebonnet); test: Postemergence herbicidal evaluation; format: in vivo, Oryza sativa, (L.) Tebonnet
Method: as §1, §2, §3

[11] = system: GLXMAW (Soybean, Williams); test: Postemergence herbicidal evaluation; format: in vivo, Glycine max, (L.) Merr. cv Williams
In short: as §5

[12] = system: CYPSE (Flatsedge); test: Postemergence weed control under flooded paddy conditions; format: in vivo, Cyperus serotinus; settings: postemergence weeds, 3-4 weeks after treatment
Excerpt: as §3, §6

[13] = system: ECHORC (Watergrass (Calif.)); test: Preemergence weed control under flooded paddy conditions; format: in vivo, Echinochloa oryzoides; settings: rated 3-4 weeks after treatment
Method: as §3
(§7) Preemergence herbicidal activity under flooded paddy conditions is determined as follows: plant seeds or propagating organs are planted in the top 0.5 cm of silt loam soil in 32 oz. plastic containers with a diameter of 10.5 cm and no drainage holes. Water is added to these containers and maintained at 1.5 to 3 cm above the soil surface for the duration of the experiment. The test compounds are applied as aqueous/acetone mixtures 50/50 v/v pipetted directly into the flood water to give the equivalent of about 0.0313 to 0.500 kg/ha of active ingredient. The treated containers are placed on greenhouse benches and cared for in accordance with conventional greenhouse procedures. Three to four weeks after treatment, the test is terminated and each container is examined and herbicidal effect rated according to the rating system provided in Example 37. The compounds evaluated are reported by compound number given in Example 37.
(§8) Plant species employed in this example are reported by header abbreviation, common name and scientific name.

[14] = system: MOOVA (Monochoria); test: as above; format: in vivo, Monochoria vaginalis; settings: rated 3-4 weeks after treatment
In short: as §4

[15] = system: ABUTH (Velvetleaf); test: Postemergence herbicidal evaluation; format: in vivo, Abutilon theophrasti
In short: as §5

[16] = system: ECHORC (Watergrass (Calif.)); test: Postemergence weed control under flooded paddy conditions; format: in vivo, Echinochloa oryzoides; settings: postemergence weeds, 3-4 weeks after treatment
Excerpt: as §3, §6

[17] = system: SAGPY (Arrowhead (Pygmaea)); test: as above; format: in vivo, Sagittaria pygmaea; settings: postemergence weeds, 3-4 weeks after treatment
Excerpt: as §3, §6

[18] = system: CASOB (Sicklepod); test: Postemergence herbicidal evaluation; format: in vivo, Cassia obtusifolia
Method: as §1, §2, §3

[19] = system: AMBEL (Ragweed, Common); test: Postemergence herbicidal evaluation; format: in vivo, Ambrosia artemisifolia
Method: as §1, §2, §3

[20] = system: SAGPY (Arrowhead (Pygmaea)); test: Preemergence weed control under flooded paddy conditions; format: in vivo, Sagittaria pygmaea; settings: rated 3-4 weeks after treatment
Method: as §3, §7, §8

[21] = system: SETVI (Foxtail, Green); test: Postemergence herbicidal evaluation; format: in vivo, Setaria viridis
In short: as §5

[22] = system: CYPIR (Rice Flatsedge); test: Preemergence weed control under flooded paddy conditions; format: in vivo, Cyperus iria; settings: rated 3-4 weeks after treatment
Method: as §3, §7, §8

## CCOC(=O)CN1C(=O)C(CC(=O)NC)SC1=Nc1cc(-n2c(=O)cc(C(F)(F)F)n(C)c2=O)c(F)cc1Cl (stereo not shown) [Compound 57, Ethyl 2-{{2-chloro-5-[3,6-dihydro-3-methyl-2,6-dioxo-4-(trifluoromethyl)-1(2H)-pyrimidinyl]-4-fluorophenyl}imino}-5-[(methylcarbamoyl)methyl]-4-oxo-3-thiazolidineacetate]
[1]; Rate 0.0158 kg/ha
  Postemergence herbicidal rating CHEAL: 9.0
[1]; Rate 0.0315 kg/ha
  Postemergence herbicidal rating CHEAL: 9.0
[1]; Rate 0.0630 kg/ha
  Postemergence herbicidal rating CHEAL: 9.0
[2]; 0.0313 kg/ha
  Herbicidal rating CYPSE: 0.0
[2]; 0.0625 kg/ha
  Herbicidal rating CYPSE: 0.0
[2]; 0.1250 kg/ha
  Herbicidal rating CYPSE: 0.0
[2]; 0.2500 kg/ha
  Herbicidal rating CYPSE: 3.0
[3]; Rate 0.0158 kg/ha
  Postemergence herbicidal rating GALAP: 4.0
[3]; Rate 0.0315 kg/ha
  Postemergence herbicidal rating GALAP: 6.0
[3]; Rate 0.0630 kg/ha
  Postemergence herbicidal rating GALAP: 5.0
[4]; rate 0.0313 kg/ha
  Herbicidal rating CYPIR: 0.0
[4]; rate 0.0625 kg/ha
  Herbicidal rating CYPIR: 9.0
[4]; rate 0.1250 kg/ha
  Herbicidal rating CYPIR: 9.0
[4]; rate 0.2500 kg/ha
  Herbicidal rating CYPIR: 9.0
[5]; Rate 0.0158 kg/ha
  Postemergence herbicidal rating ZEAMX: 4.5
[5]; Rate 0.0315 kg/ha
  Postemergence herbicidal rating ZEAMX: 5.0
[5]; Rate 0.0630 kg/ha
  Postemergence herbicidal rating ZEAMX: 5.0
[6]; Rate 0.0158 kg/ha
  Postemergence herbicidal rating IPOHE: 9.0
[6]; Rate 0.0315 kg/ha
  Postemergence herbicidal rating IPOHE: 9.0
[6]; Rate 0.0630 kg/ha
  Postemergence herbicidal rating IPOHE: 9.0
[7]; Rate 0.0158 kg/ha
  Postemergence herbicidal rating TRZAWR: 3.0
[7]; Rate 0.0315 kg/ha
  Postemergence herbicidal rating TRZAWR: 4.0
[7]; Rate 0.0630 kg/ha
  Postemergence herbicidal rating TRZAWR: 4.0
[8]; rate 0.0313 kg/ha
  Herbicidal rating MOOVA: 9.0
[8]; rate 0.0625 kg/ha
  Herbicidal rating MOOVA: 9.0
[8]; rate 0.1250 kg/ha
  Herbicidal rating MOOVA: 9.0
[8]; rate 0.2500 kg/ha
  Herbicidal rating MOOVA: 9.0
[9]; Rate 0.0158 kg/ha
  Postemergence herbicidal rating ECHCG: 1.0
[9]; Rate 0.0315 kg/ha
  Postemergence herbicidal rating ECHCG: 1.0
[9]; Rate 0.0630 kg/ha
  Postemergence herbicidal rating ECHCG: 1.0
[10]; Rate 0.0158 kg/ha
  Postemergence herbicidal rating ORYSAT: 1.5
[10]; Rate 0.0315 kg/ha
  Postemergence herbicidal rating ORYSAT: 2.5
[10]; Rate 0.0630 kg/ha
  Postemergence herbicidal rating ORYSAT: 3.0
[11]; Rate 0.0158 kg/ha
  Postemergence herbicidal rating GLXMAW: 6.5
[11]; Rate 0.0315 kg/ha
  Postemergence herbicidal rating GLXMAW: 6.5
[11]; Rate 0.0630 kg/ha
  Postemergence herbicidal rating GLXMAW: 9.0
[12]; rate 0.0313 kg/ha
  Herbicidal rating CYPSE: 0.0
[12]; rate 0.0625 kg/ha
  Herbicidal rating CYPSE: 0.0
[12]; rate 0.1250 kg/ha
  Herbicidal rating CYPSE: 0.0
[12]; rate 0.2500 kg/ha
  Herbicidal rating CYPSE: 3.0
[13]; 0.0313 kg/ha
  Herbicidal rating ECHORC: 0.0
[13]; 0.0625 kg/ha
  Herbicidal rating ECHORC: 2.0
[13]; 0.1250 kg/ha
  Herbicidal rating ECHORC: 2.0
[13]; 0.2500 kg/ha
  Herbicidal rating ECHORC: 5.0
[14]; 0.0313 kg/ha
  Herbicidal rating MOOVA: 9.0
[14]; 0.0625 kg/ha
  Herbicidal rating MOOVA: 9.0
[14]; 0.1250 kg/ha
  Herbicidal rating MOOVA: 9.0
[14]; 0.2500 kg/ha
  Herbicidal rating MOOVA: 9.0
[15]; Rate 0.0158 kg/ha
  Postemergence herbicidal rating ABUTH: 9.0
[15]; Rate 0.0315 kg/ha
  Postemergence herbicidal rating ABUTH: 9.0
[15]; Rate 0.0630 kg/ha
  Postemergence herbicidal rating ABUTH: 9.0
[16]; rate 0.0313 kg/ha
  Herbicidal rating ECHORC: 0.0
[16]; rate 0.0625 kg/ha
  Herbicidal rating ECHORC: 2.0
[16]; rate 0.1250 kg/ha
  Herbicidal rating ECHORC: 2.0
[16]; rate 0.2500 kg/ha
  Herbicidal rating ECHORC: 5.0
[17]; rate 0.0313 kg/ha
  Herbicidal rating SAGPY: 0.0
[17]; rate 0.0625 kg/ha
  Herbicidal rating SAGPY: 0.0
[17]; rate 0.1250 kg/ha
  Herbicidal rating SAGPY: 0.0
[17]; rate 0.2500 kg/ha
  Herbicidal rating SAGPY: 6.0
[18]; Rate 0.0158 kg/ha
  Postemergence herbicidal rating CASOB: 2.0
[18]; Rate 0.0315 kg/ha
  Postemergence herbicidal rating CASOB: 2.0
[18]; Rate 0.0630 kg/ha
  Postemergence herbicidal rating CASOB: 6.0
[19]; Rate 0.0158 kg/ha
  Postemergence herbicidal rating AMBEL: 9.0
[19]; Rate 0.0315 kg/ha
  Postemergence herbicidal rating AMBEL: 9.0
[19]; Rate 0.0630 kg/ha
  Postemergence herbicidal rating AMBEL: 9.0
[20]; 0.0313 kg/ha
  Herbicidal rating SAGPY: 0.0
[20]; 0.0625 kg/ha
  Herbicidal rating SAGPY: 0.0
[20]; 0.1250 kg/ha
  Herbicidal rating SAGPY: 0.0
[20]; 0.2500 kg/ha
  Herbicidal rating SAGPY: 6.0
[21]; Rate 0.0158 kg/ha
  Postemergence herbicidal rating SETVI: 2.0
[21]; Rate 0.0315 kg/ha
  Postemergence herbicidal rating SETVI: 4.0
[21]; Rate 0.0630 kg/ha
  Postemergence herbicidal rating SETVI: 5.0
[22]; 0.0313 kg/ha
  Herbicidal rating CYPIR: 0.0
[22]; 0.0625 kg/ha
  Herbicidal rating CYPIR: 9.0
[22]; 0.1250 kg/ha
  Herbicidal rating CYPIR: 9.0
[22]; 0.2500 kg/ha
  Herbicidal rating CYPIR: 9.0
